Laboratory results as given in patent publication US20190343908A1, “Therapeutic Combination for the Treatment of Cancer” (Nerium Biotechnology Inc., priority 2011, published 2019).

Tests used:
Type in all cases: cell-based, human
[1] = test system: HCT-116 (colorectal cancer); assay: Sulforhodamine B viability assay, HCT-116; set-up: key: absorbance (optical density) at 570 nm, second wavelength subtracted; conditions: for Average SRB: HCT-116
From the text: (§1) Three different viability assays were chosen to complement each other and yielded results dependent on concentration and cell line: the Methyl Tetrazolium dye assay, the Sulforhodamine B fluorescent dye assay, and the Crystal Violet dye assay.
(§2) The Sulforhodamine B and Crystal Violet assays provide information about protein and were used to complement the Methyl-Tetrazolium dye assay. […] It is used for the quantification of cellular proteins of cultured cells. The assay using Crystal Violet, a dye that binds electrostatically to proteins and stains DNA, provides a reliable, simple assay for measuring viability of cells.
(§3) The Methyl Tetrazolium, Sulforhodamine B, and Crystal Violet assays were used to assess cell viabilities. The incubation times were 24 hours, 48 hours, and 72 hours. The Nerium oleander extract Anvirzel™ (a hot water extract of oleander obtained from Salud Integral, Honduras) was tested in concentrations ranging from 0.01 ng/mL to 10 ng/mL.
(§4) Cells were detached by trypsinization (Trypsin-0.25% EDTA, Invitrogen, 25200-072) during the logarithmic phase of culture growth and plated in 96-well plates (18.000 cells/well) (Corning, Costar 359) in a final volume of 200 μl of medium per well. […] The absorbance was measured after 24 hours, 48 hours, and 72 hours of incubation.
(§5) For the Sulforhodamine B assay, 96-well plates were fixed by 10% trichloroacetic acid (Fluka, 91228) and were incubated at 4° C. for 1 hour. Afterwards, plates were rinsed with water and cells were stained with 0.4% Sulforhodamine B (Sigma, 341738), dissolved in 1% acetic acid (Carlo Ebra, 401422) for 15 minutes at room temperature (RT). The unbound stain was washed twice with 1% acetic acid. Finally, 10 mM Tris Buffer pH 10.5 (Sigma, T6791) was added to dissolve the dye.
(§6) The optical density of each plate was measured on a μQuant spectrophotometer and the data were analyzed with Gen5 software (μQuant Biomolecular Spectrophotometer MQX200 and Gen5™ Microplate Data Collection & Analysis software, BioTek® Instruments. Inc, April 2008). Absorbance was measured at 570 nm for all assays and a second wavelength was measured in order to subtract noise. For the Methyl-Tetrazolium assay this second wavelength was 630 nm and for the Sulforhodamine B and Crystal Violet assays it was 690 nm.

[2] = test system: CALU-1 (non-small cell lung carcinoma); assay: Sulforhodamine B viability assay, CALU-1
From the text: as §1, §2, §3, §4, §5, §6

[3] = test system: HCT-15 (colorectal cancer); assay: Sulforhodamine B viability assay, HCT-15; set-up: key to SRB Average: absorbance (optical density) at 570 nm, second wavelength subtracted; conditions: for SRB Average 24 h / SRB Average 48 h / SRB Average 72 h: HCT-15, Run 1
From the text: as §1, §2, §3, §4, §5, §6

N.N.[Cl][Pt][Cl] [cisplatin]
SRB Average ([1]; HCT-116, Run 3, 24 h, 0.1 μg/ml CDDP): 2.01
SRB Average ([1]; HCT-116, Run 3, 24 h, 1 μg/ml CDDP): 2.129
SRB Average ([1]; HCT-116, Run 3, 24 h, 10 μg/ml CDDP): 2.05
SRB Average ([1]; HCT-116, Run 3, 24 h, 100 μg/ml CDDP): 2.084
SRB Average ([1]; HCT-116, Run 3, 48 h, 0.1 μg/ml CDDP): 1.933
SRB Average ([1]; HCT-116, Run 3, 48 h, 1 μg/ml CDDP): 1.394
SRB Average ([1]; HCT-116, Run 3, 48 h, 10 μg/ml CDDP): 1.353
SRB Average ([1]; HCT-116, Run 3, 48 h, 100 μg/ml CDDP): 1.136
SRB Average ([1]; HCT-116, Run 3, 72 h, 0.1 μg/ml CDDP): 2.357
SRB Average ([1]; HCT-116, Run 3, 72 h, 1 μg/ml CDDP): 1.78
SRB Average ([1]; HCT-116, Run 3, 72 h, 10 μg/ml CDDP): 1.876
SRB Average ([1]; HCT-116, Run 3, 72 h, 100 μg/ml CDDP): 1.404
Average SRB ([1]; Run 1, 24 h, 0.1 μg/ml CDDP): 1.56
Average SRB ([1]; Run 1, 24 h, 1 μg/ml CDDP): 1.606
Average SRB ([1]; Run 1, 24 h, 10 μg/ml CDDP): 1.527
Average SRB ([1]; Run 1, 24 h, 100 μg/ml CDDP): 1.736
Average SRB ([1]; Run 1, 48 h, 0.1 μg/ml CDDP): 2.278
Average SRB ([1]; Run 1, 48 h, 1 μg/ml CDDP): 2.16
Average SRB ([1]; Run 1, 48 h, 10 μg/ml CDDP): 2.055
Average SRB ([1]; Run 1, 48 h, 100 μg/ml CDDP): 1.169
Average SRB ([1]; Run 1, 72 h, 0.1 μg/ml CDDP): 2.449
Average SRB ([1]; Run 1, 72 h, 1 μg/ml CDDP): 1.569
Average SRB ([1]; Run 1, 72 h, 10 μg/ml CDDP): 1.67
Average SRB ([1]; Run 1, 72 h, 100 μg/ml CDDP): 1.616
Average SRB ([1]; Run 2, 24 h, 0.1 μg/ml CDDP): 1.357
Average SRB ([1]; Run 2, 24 h, 1 μg/ml CDDP): 1.199
Average SRB ([1]; Run 2, 24 h, 10 μg/ml CDDP): 1.056
Average SRB ([1]; Run 2, 24 h, 100 μg/ml CDDP): 1.173
Average SRB ([1]; Run 2, 48 h, 0.1 μg/ml CDDP): 2.886
Average SRB ([1]; Run 2, 48 h, 1 μg/ml CDDP): 2.878
Average SRB ([1]; Run 2, 48 h, 10 μg/ml CDDP): 2.746
Average SRB ([1]; Run 2, 48 h, 100 μg/ml CDDP): 2.664
Average SRB ([1]; Run 2, 72 h, 0.1 μg/ml CDDP): 2.909
Average SRB ([1]; Run 2, 72 h, 1 μg/ml CDDP): 2.703
Average SRB ([1]; Run 2, 72 h, 10 μg/ml CDDP): 2.728
Average SRB ([1]; Run 2, 72 h, 100 μg/ml CDDP): 2.514
Average SRB 24 h ([2]; CALU-1 Run 1, 0.1 μg/ml CDDP): 1.457
Average SRB 48 h ([2]; CALU-1 Run 1, 0.1 μg/ml CDDP): 1.939
Average SRB 72 h ([2]; CALU-1 Run 1, 0.1 μg/ml CDDP): 1.598
Average SRB 24 h ([2]; CALU-1 Run 1, 1 μg/ml CDDP): 1.438
Average SRB 48 h ([2]; CALU-1 Run 1, 1 μg/ml CDDP): 1.991
Average SRB 72 h ([2]; CALU-1 Run 1, 1 μg/ml CDDP): 1.5
Average SRB 24 h ([2]; CALU-1 Run 1, 10 μg/ml CDDP): 1.401
Average SRB 48 h ([2]; CALU-1 Run 1, 10 μg/ml CDDP): 1.563
Average SRB 72 h ([2]; CALU-1 Run 1, 10 μg/ml CDDP): 1.108
Average SRB 24 h ([2]; CALU-1 Run 1, 100 μg/ml CDDP): 1.348
Average SRB 48 h ([2]; CALU-1 Run 1, 100 μg/ml CDDP): 1.521
Average SRB 72 h ([2]; CALU-1 Run 1, 100 μg/ml CDDP): 1.299
Average SRB 24 h ([2]; CALU-1 Run 2, 0.1 μg/ml CDDP): 1.437
Average SRB 48 h ([2]; CALU-1 Run 2, 0.1 μg/ml CDDP): 1.79
Average SRB 72 h ([2]; CALU-1 Run 2, 0.1 μg/ml CDDP): 2.674
Average SRB 24 h ([2]; CALU-1 Run 2, 1 μg/ml CDDP): 1.725
Average SRB 48 h ([2]; CALU-1 Run 2, 1 μg/ml CDDP): 1.837
Average SRB 72 h ([2]; CALU-1 Run 2, 1 μg/ml CDDP): 2.563
Average SRB 24 h ([2]; CALU-1 Run 2, 10 μg/ml CDDP): 1.48
Average SRB 48 h ([2]; CALU-1 Run 2, 10 μg/ml CDDP): 1.702
Average SRB 72 h ([2]; CALU-1 Run 2, 10 μg/ml CDDP): 2.434
Average SRB 24 h ([2]; CALU-1 Run 2, 100 μg/ml CDDP): 1.318
Average SRB 48 h ([2]; CALU-1 Run 2, 100 μg/ml CDDP): 1.541
Average SRB 72 h ([2]; CALU-1 Run 2, 100 μg/ml CDDP): 1.575
Average SRB 24 h ([2]; CALU-1 Run 3, 0.1 μg/ml CDDP, 24 h): 1.492
Average SRB 48 h ([2]; CALU-1 Run 3, 0.1 μg/ml CDDP, 48 h): 1.491
Average SRB 72 h ([2]; CALU-1 Run 3, 0.1 μg/ml CDDP, 72 h): 1.835
Average SRB 24 h ([2]; CALU-1 Run 3, 1 μg/ml CDDP, 24 h): 1.295
Average SRB 48 h ([2]; CALU-1 Run 3, 1 μg/ml CDDP, 48 h): 1.463
Average SRB 72 h ([2]; CALU-1 Run 3, 1 μg/ml CDDP, 72 h): 1.452
Average SRB 24 h ([2]; CALU-1 Run 3, 10 μg/ml CDDP, 24 h): 1.139
Average SRB 48 h ([2]; CALU-1 Run 3, 10 μg/ml CDDP, 48 h): 1.152
Average SRB 72 h ([2]; CALU-1 Run 3, 10 μg/ml CDDP, 72 h): 1.193
Average SRB 24 h ([2]; CALU-1 Run 3, 100 μg/ml CDDP, 24 h): 0.98
Average SRB 48 h ([2]; CALU-1 Run 3, 100 μg/ml CDDP, 48 h): 1.449
Average SRB 72 h ([2]; CALU-1 Run 3, 100 μg/ml CDDP, 72 h): 1.264
SRB Average 24 h ([3]; 0.1 μg/ml CDDP): 2.592
SRB Average 48 h ([3]; 0.1 μg/ml CDDP): 2.747
SRB Average 72 h ([3]; 0.1 μg/ml CDDP): 2.792
SRB Average 24 h ([3]; 1 μg/ml CDDP): 1.974
SRB Average 48 h ([3]; 1 μg/ml CDDP): 2.397
SRB Average 72 h ([3]; 1 μg/ml CDDP): 1.697
SRB Average 24 h ([3]; 10 μg/ml CDDP): 1.657
SRB Average 48 h ([3]; 10 μg/ml CDDP): 2.449
SRB Average 72 h ([3]; 10 μg/ml CDDP): 1.71
SRB Average 24 h ([3]; 100 μg/ml CDDP): 1.854
SRB Average 48 h ([3]; 100 μg/ml CDDP): 1.937
SRB Average 72 h ([3]; 100 μg/ml CDDP): 1.634
SRB Average ([3]; Run 2, 24 h, 0.1 μg/ml CDDP): 2.271
SRB Average ([3]; Run 2, 24 h, 1 μg/ml CDDP): 1.762
SRB Average ([3]; Run 2, 24 h, 10 μg/ml CDDP): 2.09
SRB Average ([3]; Run 2, 24 h, 100 μg/ml CDDP): 1.78
SRB Average ([3]; Run 2, 48 h, 0.1 μg/ml CDDP): 2.54
SRB Average ([3]; Run 2, 48 h, 1 μg/ml CDDP): 2.198
SRB Average ([3]; Run 2, 48 h, 10 μg/ml CDDP): 2.456
SRB Average ([3]; Run 2, 48 h, 100 μg/ml CDDP): 2.169
SRB Average ([3]; Run 2, 72 h, 0.1 μg/ml CDDP): 2.797
SRB Average ([3]; Run 2, 72 h, 1 μg/ml CDDP): 2.068
SRB Average ([3]; Run 2, 72 h, 10 μg/ml CDDP): 1.85
SRB Average ([3]; Run 2, 72 h, 100 μg/ml CDDP): 1.585
SRB Average ([3]; Run 3, 24 h, 0.1 μg/ml CDDP): 2.578
SRB Average ([3]; Run 3, 24 h, 1 μg/ml CDDP): 1.713
SRB Average ([3]; Run 3, 24 h, 10 μg/ml CDDP): 1.941
SRB Average ([3]; Run 3, 24 h, 100 μg/ml CDDP): 1.254
SRB Average ([3]; Run 3, 48 h, 0.1 μg/ml CDDP): 2.768
SRB Average ([3]; Run 3, 48 h, 1 μg/ml CDDP): 1.845
SRB Average ([3]; Run 3, 48 h, 10 μg/ml CDDP): 2.104
SRB Average ([3]; Run 3, 48 h, 100 μg/ml CDDP): 1.77
SRB Average ([3]; Run 3, 72 h, 0.1 μg/ml CDDP): 2.96
SRB Average ([3]; Run 3, 72 h, 1 μg/ml CDDP): 1.752
SRB Average ([3]; Run 3, 72 h, 10 μg/ml CDDP): 2.063
SRB Average ([3]; Run 3, 72 h, 100 μg/ml CDDP): 1.935
